Laboratory results reported in US12122776B2, “Tetracyclic compounds and uses thereof” (Gilead Sciences, Inc., priority 2020, dated 2024).
Like-named read-outs stand apart in the source and are kept apart here.

Experiments:
Format in all cases: cell-based
[1] = tested on: HIV-1 (IIIB); assay: Antiviral assay in MT-4 cells; conditions: Human immunodeficiency virus 1, MT4, 120 h; replication of HIV-1 (IIIB) in MT-4 cells, 5 days incubation, Cell Titer Glo
Description: Example 24: HIV MT-4 Antiviral and Cytotoxicity Assay
Antiviral Assay in MT-4 Cells
Compounds were tested in a high-throughput 384-well assay format for their ability to inhibit the replication of HIV-1 (IIIB) in MT-4 cells. Compounds were serially diluted (1:3) in DMSO on 384-well polypropylene plates and further diluted 200-fold into complete RPMI media (10% FBS, 1% P/S) using the Biotek Micro Flow and Labcyte ECHO acoustic dispenser. Each plate contained up to 8 test compounds, with negative (No Drug Control) and 5 μM AZT positive controls. MT-4 cells were pre-infected with 10 μL of either RPMI (mock-infected) or a fresh 1:250 dilution of HIV-1 IIIB concentrated virus stock. Infected and uninfected MT-4 cells were further diluted in complete RPMI media and added to each plate using a Micro Flow dispenser. After 5 days incubation in a humidified and temperature controlled incubator (37° C.), Cell Titer Glo (Promega) was added to the assay plates and chemiluminescence read using an Envision plate-reader. EC50 values were defined as the compound concentration that causes a 50% decrease in luminescence signal, and were calculated using a sigmoidal dose-response model to generate curve fits.

[2] = Cytotoxicity assay in MT-4 cells; conditions: human; uninfected MT-4 cells, 5 days incubation, Cell Titer Glo
Description: Cytotoxicity Assay in MT-4 Cells Assays were performed as above except uninfected MT-4 cells were added to each well containing test compound. In addition, 10 μM puromycin was added to the last column of each assay plate to assess a base level of cytotoxicity.

[3] = tested on: pLai RLuc reporter virus; assay: HIV MT-4 serum shift antiviral reporter assay; conditions: Human immunodeficiency virus 1, MT4, 72 h
Description: Example 25: HIV MT-4 Serum Shift Antiviral Reporter Assay
To quantify the amount of protein binding to human serum, compounds were serially diluted (1:3) in DMSO and acoustically transferred onto 384-well assay plates via a Labcyte ECHO robot. Each plate contained up to 8 test compounds, including negative and positive controls, (DMSO, 5 μM AZT respectively). Assay plates were prepared in duplicate, and tested in either CCM (cell culture media) or HS/CCM (human serum/cell culture media). MT-4 cells were first pre-infected with pLai RLuc reporter virus for 2 h at 37° C., then further diluted in either CCM (RPMI media, 10% FBS, 1% P/S) or HS/CCM (RPMI media, 10% FBS, 50% HS, 1% P/S), and subsequently added to each plate using a Biotek Micro Flow dispenser. After a 72-h incubation in a humidified and temperature controlled incubator (37° C.), Renilla Glo (Promega) was added to all assay plates and chemiluminescence read using an Envision plate-reader. EC50 values were defined as the compound concentration that causes a 50% decrease in luminescence signal, and were calculated using a sigmoidal dose-response model to generate curve fits. To determine the amount of protein binding, EC50 fold shifts (or EC50 shifts) were calculated by dividing EC50 (HS/CCM)/EC50 (CCM).

[4] = read-out: Antiviral Serum Shift RLuc 50% HS
[5] = read-out: Antiviral Serum Shift RLuc CCM

Structure (SMILES)	EC50 [1]	CC50 at 5 days [2]	EC50 [3, 4]	EC50 [3, 5]
O=C(NCc1c(F)cc(F)cc1F)c1c2n3c(c(O)c1=O)C(=O)N1CCCC[C@]3(C[C@@H]2F)C1 (single isomer, unassigned) [Compound 8-1]	0.86 nM	7380 nM	25.4 nM	0.429 nM
O=C(NCc1c(F)cc(F)cc1F)c1c2n3c(c(O)c1=O)C(=O)N1CCCC[C@@]3(C[C@H]2F)C1 (single isomer, unassigned) [Compound 8-2]	2.29 nM			
O=C(NCc1c(F)cc(F)cc1F)c1c2n3c(c(O)c1=O)C(=O)N1CCCC[C@]3(C[C@H]2O)C1 (single isomer, unassigned) [Compound 9-1]	3.06 nM	8080 nM	200 nM	0.685 nM
O=C(NCc1c(F)cc(F)cc1F)c1c2n3c(c(O)c1=O)C(=O)N1CCCC[C@@]3(C[C@H]2O)C1 (single isomer, unassigned) [Compound 9-2]	1.23 nM	5170 nM	34.1 nM	0.347 nM
O=C(NCc1c(F)cc(F)cc1F)c1c2n3c(c(O)c1=O)C(=O)N1CCCC[C@]3(C[C@@H]2O)C1 (single isomer, unassigned) [Compound 9-3]	1.06 nM	6310 nM	28.5 nM	0.384 nM
O=C(NCc1c(F)cc(F)cc1F)c1c2n3c(c(O)c1=O)C(=O)N1CCCC[C@@]3(C[C@@H]2O)C1 (single isomer, unassigned) [Compound 9-4]	0.703 nM	6400 nM	5.19 nM	0.388 nM
O=C(NCc1ccc(F)cc1F)c1c2n3c(c(O)c1=O)C(=O)N1CCCC[C@]3(C[C@H]2O)C1 (single isomer, unassigned) [Compound 10-1]	4.98 nM	9560 nM	121 nM	0.715 nM
O=C(NCc1ccc(F)cc1F)c1c2n3c(c(O)c1=O)C(=O)N1CCCC[C@@]3(C[C@H]2O)C1 (single isomer, unassigned) [Compound 10-2]	1.05 nM	4120 nM	21.1 nM	0.417 nM
O=C(NCc1ccc(F)cc1F)c1c2n3c(c(O)c1=O)C(=O)N1CCCC[C@]3(C[C@@H]2O)C1 (single isomer, unassigned) [Compound 10-3]	3.31 nM	9470 nM	25.6 nM	0.632 nM
O=C(NCc1ccc(F)cc1F)c1c2n3c(c(O)c1=O)C(=O)N1CCCC[C@@]3(C[C@@H]2O)C1 (single isomer, unassigned) [Compound 10-4]	2.47 nM	4610 nM	3.3 nM	0.405 nM
O=C(NCc1c(F)cc(F)cc1F)c1c2n3c(c(O)c1=O)C(=O)N1CCCC[C@@]3(C1)[C@H](O)[C@H]2O (single isomer, unassigned) [Compound 11-1]	4 nM	50000 nM	3.91 nM	1.16 nM
O=C(NCc1c(F)cc(F)cc1F)c1c2n3c(c(O)c1=O)C(=O)N1CCCC[C@]3(C1)[C@H](O)[C@H]2O (single isomer, unassigned) [Compound 11-2]			48.4 nM	1.52 nM
O=C(NCc1c(F)cc(F)cc1F)c1c2n3c(c(O)c1=O)C(=O)N1CCCC[C@@]3(C1)[C@@H](O)[C@@H]2O (single isomer, unassigned) [Compound 11-3]	5.28 nM	50000 nM	7.57 nM	4.08 nM
O=C(NCc1c(F)cc(F)cc1F)c1c2n3c(c(O)c1=O)C(=O)N1CCCC[C@]3(C1)[C@@H](O)[C@@H]2O (single isomer, unassigned) [Compound 11-4]	4.02 nM	50000 nM	20.5 nM	1.02 nM
CO[C@@H]1C[C@@]23CCCCN(C2)C(=O)c2c(O)c(=O)c(C(=O)NCc4c(F)cc(F)cc4F)c1n23 (single isomer, unassigned) [Compound 12-1]	1.54 nM	9690 nM	16.9 nM	0.77 nM
CO[C@H]1C[C@@]23CCCCN(C2)C(=O)c2c(O)c(=O)c(C(=O)NCc4c(F)cc(F)cc4F)c1n23 (single isomer, unassigned) [Compound 12-3]	4.47 nM	14800 nM		
CO[C@@H]1C[C@]23CCCCN(C2)C(=O)c2c(O)c(=O)c(C(=O)NCc4c(F)cc(F)cc4F)c1n23 (single isomer, unassigned) [Compound 12-4]	7.33 nM			
CO[C@@H]1[C@@H](OC)c2c(C(=O)NCc3c(F)cc(F)cc3F)c(=O)c(O)c3n2[C@@]12CCCCN(C2)C3=O (single isomer, unassigned) [Compound 13-1]	1.7 nM	27800 nM		
CO[C@@H]1c2c(C(=O)NCc3c(F)cc(F)cc3F)c(=O)c(O)c3n2[C@]2(CCCCN(C2)C3=O)[C@H]1OC (single isomer, unassigned) [Compound 13-2]	1.1 nM	24700 nM		
CO[C@@H]1c2c(C(=O)NCc3c(F)cc(F)cc3F)c(=O)c(O)c3n2[C@@]2(CCCCN(C2)C3=O)[C@H]1OC (single isomer, unassigned) [Compound 13-3]	9.5 nM	10100 nM		
CO[C@@H]1[C@@H](OC)c2c(C(=O)NCc3c(F)cc(F)cc3F)c(=O)c(O)c3n2[C@]12CCCCN(C2)C3=O (single isomer, unassigned) [Compound 13-4]	10.7 nM	30700 nM		
O=C(NCc1c(F)cc(F)cc1F)c1c2n3c(c(O)c1=O)C(=O)N1CCCC[C@]3(CC2CO)C1 (single isomer, unassigned) [Compound 16]	2.8 nM	7450 nM		
O=C(NCc1cccc(Cl)c1F)c1c2n3c(c(O)c1=O)C(=O)N1CCCC[C@]3(CC2)C1 [Compound 6, (6aS)—N-(3-chloro-2-fluorobenzyl)-11-hydroxy-1,10-dioxo-1,3,4,5,6,7,8,10-octahydro-2,6a-methano[1,4]diazonino[9,1,2-cd]indolizine-9-carboxamide]	2.6 nM	3680 nM		
CO[C@H]1CC[C@H](C)N2C[C@]13CCc1c(C(=O)NCc4ccc(F)cc4F)c(=O)c(O)c(n13)C2=O [Compound 19-1, (1R,11S,14S)—N-[(2.4 difluorophenyl)methyl]-7-hydroxy-14-methoxy-11-methyl-6,9-dioxo-10,15-diazatetracyclo[6.6.1.11,10.04,15]hexadeca-4.7 diene-5-carboxamide]	2.1 nM	4600 nM		
CO[C@H]1C=C[C@H](C)N2C[C@]13CCc1c(C(=O)NCc4ccc(F)cc4F)c(=O)c(O)c(n13)C2=O [Compound 19-2, (1R,11S,14S)—N-[(2.4 difluorophenyl)methyl]-7-hydroxy-14-methoxy-11-methyl-6,9-dioxo-10,15-diazatetracyclo[6.6.1.11,10.04,15]hexadeca-4,7,12-triene-5-carboxamide]	0.86 nM	1870 nM		
CO[C@H]1C=C[C@H](C)N2C[C@]13CC(O)c1c(C(=O)NCc4ccc(F)cc4F)c(=O)c(O)c(n13)C2=O (stereo partly drawn) [Compound 19-3, (1R,11S,14S)—N-[(2.4 difluorophenyl)methyl]-3.7 dihydroxy-14-methoxy-11-methyl-6,9-dioxo-10,15-diazatetracyclo[6.6.1.11,10.04,15]hexadeca-4,7,12-triene-5-carboxamide]	1.2 nM	6950 nM		
CO[C@H]1C=C[C@H](C)N2C[C@]13CCc1c(C(=O)NCc4c(F)cc(F)cc4F)c(=O)c(O)c(n13)C2=O [Compound 22, (3S,6S,6aR)-11-hydroxy-6-methoxy-3-methyl-1,10-dioxo-N-(2,4,6-trifluorobenzyl)-1,3,6,7,8,10-hexahydro-2,6a-methano[1,4]diazonino[9,1,2-cd]indolizine-9-carboxamide]	1.8 nM	1940 nM		
C[C@H]1CC[C@H](O)[C@]23CCc4c(C(=O)NCc5c(F)cc(F)cc5F)c(=O)c(O)c(n42)C(=O)N1C3 [Compound 23-1, (3S,6S,6aR)-6,11-dihydroxy-3-methyl-1,10-dioxo-N-(2,4,6-trifluorobenzyl)-1,3,4,5,6,7,8,10-octahydro-2,6a-methano[1,4]diazonino[9,1,2-cd]indolizine-9-carboxamide]	5.7 nM	26600 nM		
